32 compounds from patent US20230150970A1, “AMINOPYRIMIDINE DERIVATIVES AND THEIR USE AS ARYL HYDROCARBON RECEPTOR MODULATORS” (DONG-A ST CO., LTD., priority 2020, published 2023) can be followed below.

Some results are limits rather than exact numbers.

One data set deals with T1, AhR (Homo sapiens, UniProt P35869).
T1 sequence (P35869 11-848): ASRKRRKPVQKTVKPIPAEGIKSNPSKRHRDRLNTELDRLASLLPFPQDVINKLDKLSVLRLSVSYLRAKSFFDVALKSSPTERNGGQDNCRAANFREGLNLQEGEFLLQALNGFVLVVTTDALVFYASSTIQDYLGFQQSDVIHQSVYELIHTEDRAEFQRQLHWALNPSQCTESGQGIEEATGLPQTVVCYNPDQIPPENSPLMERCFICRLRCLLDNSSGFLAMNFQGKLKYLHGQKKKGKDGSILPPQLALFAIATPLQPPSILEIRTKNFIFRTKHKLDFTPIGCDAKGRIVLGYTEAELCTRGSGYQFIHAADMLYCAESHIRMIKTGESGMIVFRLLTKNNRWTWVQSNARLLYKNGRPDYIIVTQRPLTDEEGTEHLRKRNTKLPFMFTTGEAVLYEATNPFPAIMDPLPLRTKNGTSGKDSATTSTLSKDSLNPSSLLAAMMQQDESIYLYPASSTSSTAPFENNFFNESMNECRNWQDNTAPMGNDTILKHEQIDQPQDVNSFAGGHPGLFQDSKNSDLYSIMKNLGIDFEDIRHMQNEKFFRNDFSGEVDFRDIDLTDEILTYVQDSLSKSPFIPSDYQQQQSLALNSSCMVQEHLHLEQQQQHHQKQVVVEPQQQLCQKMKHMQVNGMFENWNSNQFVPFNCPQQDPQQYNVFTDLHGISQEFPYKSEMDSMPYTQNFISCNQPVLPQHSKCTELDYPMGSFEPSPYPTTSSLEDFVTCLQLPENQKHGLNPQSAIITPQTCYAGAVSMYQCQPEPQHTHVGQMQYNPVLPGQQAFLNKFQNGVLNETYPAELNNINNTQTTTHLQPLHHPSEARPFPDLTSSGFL
The data set is described as follows: In Vitro Assay 1: XRE-luciferase reporter assay, antagonism in human cell line (HepG2). The note with it: Assay 1: AhR-Luc Human Antagonism (IC50, nM), unmarked values: kynurenine 200 μM, 6 hours. For orientation: In a reporter assay the amount or activity of a reporter protein is the signal.
As usually defined, the IC50 is the concentration at which inhibition is half-maximal. In turn, `OCC1CCN(c2cc(-c3c(F)cc(F)cc3F)nc(-c3cccnc3)n2)CC1` [Example 277, (1-(2-(pyridin-3-yl)-6-(2,4,6-trifluorophenyl)pyrimidin-4-yl)piperidin-4-yl)methanol] gave an IC50 of 100 to 1000 nM.

Compound `OC[C@@H]1CN(c2cc(-c3ccc(C(F)(F)F)cc3)nc(-c3cccnc3)n2)CCO1` [Example 279, (S)-(4-(2-(pyridin-3-yl)-6-(4-(trifluoromethyl)phenyl)pyrimidin-4-yl)morpholin-2-yl)methanol] came in with an IC50 of less than 10 nM.

The compound `OC[C@@H]1CCN(c2cc(-c3ccc(C(F)(F)F)cc3)nc(-c3cccnc3)n2)C[C@H]1F` [Example 281, ((3S,4S)-3-fluoro-1-(2-(pyridin-3-yl)-6-(4-(trifluoromethyl)phenyl)pyrimidin-4-yl)piperidin-4-yl)methanol] yielded an IC50 of less than 10 nM.

Compound `O[C@H]1CN(c2cc(-c3ccc(Cl)cc3)nc(-c3cccnc3)n2)C[C@@H]1O` [Example 284, (3S,4S)-1-(6-(4-chlorophenyl)-2-(pyridin-3-yl)pyrimidin-4-yl)pyrrolidine-3,4-diol] yielded an IC50 of less than 10 nM.

Consider `OCC1CCN(c2cc(-c3ccc(N4CCOCC4)cc3)nc(-c3cccnc3O)n2)CC1` [Example 285, 3-(4-(4-(hydroxymethyl)piperidin-1-yl)-6-(4-morpholinophenyl)pyrimidin-2-yl)pyridin-2-ol], for which the IC50 fell in the range of 10 to 100 nM.

As for `Cn1cc(-c2nc(-c3ccc(N4CCOCC4)cc3)cc(N3CCC(CO)CC3)n2)cn1` [Example 286, (1-(2-(1-methyl-1H-pyrazol-4-yl)-6-(4-morpholinophenyl)pyrimidin-4-yl)piperidin-4-yl)methanol], the 50% inhibitory concentration (IC50) is 100 to 1000 nM.

The compound `Cn1cc(-c2nc(-c3ccc(N4CCOCC4)c(F)c3)cc(N3CCC(CO)CC3)n2)cn1` [Example 287, (1-(6-(3-fluoro-4-morpholinophenyl)-2-(1-methyl-1H-pyrazol-4-yl)pyrimidin-4-yl)piperidin-4-yl)methanol] yielded an IC50 of 100 to 1000 nM.

The compound `OCC1CCN(c2cc(-c3ccc4[nH]ncc4c3)nc(-c3cccnc3)n2)CC1` [Example 288, (1-(6-(1H-indazol-5-yl)-2-(pyridin-3-yl)pyrimidin-4-yl)piperidin-4-yl)methanol] gave an IC50 of 100 to 1000 nM.

In turn, `O=C1Cc2cc(-c3cc(N4CCC(CO)CC4)nc(-c4cccnc4)n3)ccc2N1` [Example 290, 5-(6-(4-(hydroxymethyl)piperidin-1-yl)-2-(pyridin-3-yl)pyrimidin-4-yl)indolin-2-one] had an IC50 of more than 1000 nM.

Consider `O=C1COCCN1c1ccc(-c2cc(N3CCC(CO)CC3)nc(-c3cccnc3)n2)cc1` [Example 291, 4-(4-(6-(4-(hydroxymethyl)piperidin-1-yl)-2-(pyridin-3-yl)pyrimidin-4-yl)phenyl)morpholin-3-one], for which the IC50 is more than 1000 nM.

Compound `O=C(O)c1ccc(-c2cc(N3CCC(CO)CC3)nc(-c3cccnc3)n2)cc1` [Example 292, 4-(6-(4-(hydroxymethyl)piperidin-1-yl)-2-(pyridin-3-yl)pyrimidin-4-yl)benzoic acid] returned an IC50 of more than 1000 nM.

`OCC1CCN(c2cc(-c3cncc(F)c3)nc(-c3cccnc3)n2)CC1` [Example 294, (1-(6-(5-fluoropyridin-3-yl)-2-(pyridin-3-yl)pyrimidin-4-yl)piperidin-4-yl)methanol] came in with an IC50 of 100 to 1000 nM.

`Oc1ncccc1-c1nc(-c2ccc(N3CCOCC3)nc2)cc(N2CC[C@H](O)C2)n1` [Example 295, (S)-3-(4-(3-hydroxypyrrolidin-1-yl)-6-(6-morpholinopyridin-3-yl)pyrimidin-2-yl)pyridin-2-ol] had an IC50 of more than 1000 nM.

`O=[N+]([O-])c1cc(-c2cc(N3CC[C@H](O)C3)nc(-c3cccnc3)n2)ccc1F` [Example 296, (S)-1-(6-(4-fluoro-3-nitrophenyl)-2-(pyridin-3-yl)pyrimidin-4-yl)pyrrolidin-3-ol] came in with an IC50 of more than 1000 nM.

`O=[N+]([O-])c1cc(-c2cc(N3CC[C@H](O)C3)nc(-c3cccnc3)n2)ccc1N1CCOCC1` [Example 297, (S)-1-(6-(4-morpholino-3-nitrophenyl)-2-(pyridin-3-yl)pyrimidin-4-yl)pyrrolidin-3-ol] had an IC50 of more than 1000 nM.

`Nc1cc(-c2cc(N3CC[C@H](O)C3)nc(-c3cccnc3)n2)ccc1N1CCOCC1` [Example 298, (S)-1-(6-(3-amino-4-morpholinophenyl)-2-(pyridin-3-yl)pyrimidin-4-yl)pyrrolidin-3-ol] registered an IC50 of 10 to 100 nM.

`CC(=O)Nc1cc(-c2cc(N3CC[C@H](O)C3)nc(-c3cccnc3)n2)ccc1N1CCOCC1` [Example 299, (S)—N-(5-(6-(3-hydroxypyrrolidin-1-yl)-2-(pyridin-3-yl)pyrimidin-4-yl)-2-morpholinophenyl)acetamide] returned an IC50 of more than 1000 nM.

Consider `O[C@H]1CCN(c2cc(-c3ccc(F)nc3)nc(-c3cccnc3)n2)C1` [Example 300, (S)-1-(6-(6-fluoropyridin-3-yl)-2-(pyridin-3-yl)pyrimidin-4-yl)pyrrolidin-3-ol], for which the IC50 was in the range of 100 to 1000 nM.

`CN(C)CCNc1ccc(-c2cc(N3CC[C@H](O)C3)nc(-c3cccnc3)n2)cn1` [Example 301, (S)-1-(6-(6-((2-(dimethylamino)ethyl)amino)pyridin-3-yl)-2-(pyridin-3-yl)pyrimidin-4-yl)pyrrolidin-3-ol] registered an IC50 of 100 to 1000 nM.

In turn, `CC1CN(c2ccc(-c3cc(N4CC[C@H](O)C4)nc(-c4cccnc4)n3)cn2)CC(C)O1` (stereo partly drawn) [Example 302, (3S)-1-(6-(6-(2,6-dimethylmorpholino)pyridin-3-yl)-2-(pyridin-3-yl)pyrimidin-4-yl)pyrrolidin-3-ol] gave an IC50 of more than 1000 nM.

For the compound `O=S(=O)(CCO)N1CCN(c2cc(-c3ccc(Cl)cc3O)nc(-c3cccnc3)n2)CC1` [Example 303, 5-chloro-2-(6-(4-((2-hydroxyethyl)sulfonyl)piperazin-1-yl)-2-(pyridin-3-yl)pyrimidin-4-yl)phenol], the IC50 is less than 10 nM.

Take `Oc1cc(Cl)ccc1-c1cc(N2CC[C@H](O)C2)nc(-c2cccnc2O)n1` [Example 304, (S)-3-(4-(4-chloro-2-hydroxyphenyl)-6-(3-hydroxypyrrolidin-1-yl)pyrimidin-2-yl)pyridin-2-ol]: the IC50 is less than 10 nM.

Turning to `Nc1ccc(-c2cc(N3CC[C@H](O)C3)nc(-c3cccnc3)n2)cc1` [Example 305, (S)-1-(6-(4-aminophenyl)-2-(pyridin-3-yl)pyrimidin-4-yl)pyrrolidin-3-ol], the 50% inhibitory concentration (IC50) was more than 1000 nM.

In turn, `C=CS(=O)(=O)N1CCN(c2cc(-c3ccc(Cl)cc3)nc(-c3cccnc3)n2)CC1` [Example 306, 4-(4-chlorophenyl)-2-(pyridin-3-yl)-6-(4-(vinylsulfonyl)piperazin-1-yl)pyrimidine] showed an IC50 of 10 to 100 nM.

`OCC1CCN(c2cc(-c3ccc(Cl)cc3Cl)nc(-c3cccnc3)n2)CC1` [Example 307, (1-(6-(2,4-dichlorophenyl)-2-(pyridin-3-yl)pyrimidin-4-yl)piperidin-4-yl)methanol] returned an IC50 of 10 to 100 nM.

Turning to `OC[C@@H]1CN(c2cc(-c3ccc(C(F)(F)F)cc3)nc(-c3cccnc3)n2)CCN1` [Example 308, (S)-(4-(2-(pyridin-3-yl)-6-(4-(trifluoromethyl)phenyl)pyrimidin-4-yl)piperazin-2-yl)methanol], the IC50 fell in the range of 100 to 1000 nM.

`OC[C@H]1CN(c2cc(-c3ccc(C(F)(F)F)cc3)nc(-c3cccnc3)n2)CCN1` [Example 309, (R)-(4-(2-(pyridin-3-yl)-6-(4-(trifluoromethyl)phenyl)pyrimidin-4-yl)piperazin-2-yl)methanol] had a half-inhibitory concentration (IC50) of 10 to 100 nM.

As for `O=C(O)[C@@H]1CCN(c2cc(-c3ccc(C(F)(F)F)cc3)nc(-c3cccnc3)n2)C1` [Example 310, (R)-1-(2-(pyridin-3-yl)-6-(4-(trifluoromethyl)phenyl)pyrimidin-4-yl)pyrrolidine-3-carboxylic acid], the IC50 fell in the range of 100 to 1000 nM.

Turning to `O=C(O)[C@@H]1CCN(c2cc(-c3ccc(Cl)cc3)nc(-c3cccnc3)n2)C1` [Example 311, (R)-1-(6-(4-chlorophenyl)-2-(pyridin-3-yl)pyrimidin-4-yl)pyrrolidine-3-carboxylic acid], the IC50 was 100 to 1000 nM.

In turn, `Cn1cc(-c2nc(-c3ccc(Cl)cc3)cc(N3CC[C@@H](C(=O)O)C3)n2)cn1` [Example 313, (R)-1-(6-(4-chlorophenyl)-2-(1-methyl-1H-pyrazol-4-yl)pyrimidin-4-yl)pyrrolidine-3-carboxylic acid] yielded a half-inhibitory concentration (IC50) of more than 1000 nM.

Regarding `O[C@H]1CCN(c2cc(-c3ccc(N4CCOCC4)nc3)nc(-c3cccnc3)n2)C1` [Example 315, (S)-1-(6-(6-morpholinopyridin-3-yl)-2-(pyridin-3-yl)pyrimidin-4-yl)pyrrolidin-3-ol], the IC50 was less than 10 nM.

Staying with this data set, now noted: read-out: Assay 1: AhR-Luc Human Antagonism (IC50), unmarked values: kynurenine 200 μM, 6 hours.
Take `Cn1ccc(-c2cc(N3CCC(CO)CC3)nc(-c3cccnc3)n2)n1` [Example 293, 4 (1-(6-(1-methyl-1H-pyrazol-3-yl)-2-(pyridin-3-yl)pyrimidin-4-yl)piperidin-4-yl)methanol]: the IC50 is more than 1000 nM.
